According to patent publication US4897506A, “Isolation of alpha-l-aspartyl-l-phenylalanine methyl ester from aqueous medium” (Mitsui Toatsu Chemicals, Incorporated, priority 1987, dated 1990):
Residues, ends and D or L forms follow the SMILES beside them.

Assay: Method for Testing Solubilization: time required for completely dissolving crushed α-APM sample in water
Format: physicochemical
Details: 250 mg crushed sample in 250 ml purified water, 26±2° C., magnetic stirrer 350-360 rpm, stirring and standing alternated every 30 seconds
Procedure: Crushed α-APM sample (250 mg) is poured into 250 ml of purified water at 26±2° C. with stirring by a magnetic stirrer at 350- 360 rpm. Stirring and standing are alternately repeated for every 30 seconds and the time required for completely dissolving the sample is measured.

Row | Structure (SMILES) | time required for completely dissolving the sample (solubilization test) [min]
1 | COC(=O)[C@H](Cc1ccccc1)NC(=O)[C@@H](N)CC(=O)O [compound 4, α-L-aspartyl-L-phenylalanine methyl ester, reference compound] (H-Asp-Phe-OMe) | 13.5
2 | COC(=O)[C@H](Cc1ccccc1)NC(=O)[C@@H](N)CC(=O)O [Example 11, α-L-aspartyl-L-phenylalanine methyl ester] (H-Asp-Phe-OMe) | 6.5
3 | COC(=O)[C@H](Cc1ccccc1)NC(=O)[C@@H](N)CC(=O)O [Example 14, α-L-aspartyl-L-phenylalanine methyl ester] (H-Asp-Phe-OMe) | 6.5
4 | COC(=O)[C@H](Cc1ccccc1)NC(=O)[C@@H](N)CC(=O)O [compound 2, α-L-aspartyl-L-phenylalanine methyl ester, reference compound] (H-Asp-Phe-OMe) | 11.5
5 | COC(=O)[C@H](Cc1ccccc1)NC(=O)[C@@H](N)CC(=O)O [Example 23, α-L-aspartyl-L-phenylalanine methyl ester] (H-Asp-Phe-OMe) | ≤ 5
6 | COC(=O)[C@H](Cc1ccccc1)NC(=O)[C@@H](N)CC(=O)O [Example 4, α-L-aspartyl-L-phenylalanine methyl ester] (H-Asp-Phe-OMe) | ≤ 5
7 | COC(=O)[C@H](Cc1ccccc1)NC(=O)[C@@H](N)CC(=O)O [Example 13, α-L-aspartyl-L-phenylalanine methyl ester] (H-Asp-Phe-OMe) | 5.5
8 | COC(=O)[C@H](Cc1ccccc1)NC(=O)[C@@H](N)CC(=O)O [Example 1, α-L-aspartyl-L-phenylalanine methyl ester] (H-Asp-Phe-OMe) | ≤ 5
9 | COC(=O)[C@H](Cc1ccccc1)NC(=O)[C@@H](N)CC(=O)O [compound 9, α-L-aspartyl-L-phenylalanine methyl ester, reference compound] (H-Asp-Phe-OMe) | 12
10 | COC(=O)[C@H](Cc1ccccc1)NC(=O)[C@@H](N)CC(=O)O [Example 12, α-L-aspartyl-L-phenylalanine methyl ester] (H-Asp-Phe-OMe) | 5.5
11 | COC(=O)[C@H](Cc1ccccc1)NC(=O)[C@@H](N)CC(=O)O [Example 17, α-L-aspartyl-L-phenylalanine methyl ester] (H-Asp-Phe-OMe) | ≤ 5
12 | COC(=O)[C@H](Cc1ccccc1)NC(=O)[C@@H](N)CC(=O)O [Example 2, α-L-aspartyl-L-phenylalanine methyl ester] (H-Asp-Phe-OMe) | ≤ 5
13 | COC(=O)[C@H](Cc1ccccc1)NC(=O)[C@@H](N)CC(=O)O [Example 18, α-L-aspartyl-L-phenylalanine methyl ester] (H-Asp-Phe-OMe) | ≤ 5
14 | COC(=O)[C@H](Cc1ccccc1)NC(=O)[C@@H](N)CC(=O)O [compound 1, α-L-aspartyl-L-phenylalanine methyl ester, reference compound] (H-Asp-Phe-OMe) | 12.5
15 | COC(=O)[C@H](Cc1ccccc1)NC(=O)[C@@H](N)CC(=O)O [Example 3, α-L-aspartyl-L-phenylalanine methyl ester] (H-Asp-Phe-OMe) | ≤ 5
16 | COC(=O)[C@H](Cc1ccccc1)NC(=O)[C@@H](N)CC(=O)O [compound 8, α-L-aspartyl-L-phenylalanine methyl ester, reference compound] (H-Asp-Phe-OMe) | 12.5
17 | COC(=O)[C@H](Cc1ccccc1)NC(=O)[C@@H](N)CC(=O)O [compound 7, α-L-aspartyl-L-phenylalanine methyl ester, reference compound] (H-Asp-Phe-OMe) | 13.5
18 | COC(=O)[C@H](Cc1ccccc1)NC(=O)[C@@H](N)CC(=O)O [compound 3, α-L-aspartyl-L-phenylalanine methyl ester, reference compound] (H-Asp-Phe-OMe) | 12.5
19 | COC(=O)[C@H](Cc1ccccc1)NC(=O)[C@@H](N)CC(=O)O [Example 16, α-L-aspartyl-L-phenylalanine methyl ester] (H-Asp-Phe-OMe) | ≤ 5
20 | COC(=O)[C@H](Cc1ccccc1)NC(=O)[C@@H](N)CC(=O)O [Example 15, α-L-aspartyl-L-phenylalanine methyl ester] (H-Asp-Phe-OMe) | 5.5

Same assay, conditions: Table 1; 250 mg in 250 ml purified water, 26±2° C., stirring/standing every 30 seconds; listed as Comp. Ex. 5

Row | Structure (SMILES) | Solubilization (minutes), Table 1 [min]
21 | COC(=O)[C@H](Cc1ccccc1)NC(=O)[C@@H](N)CC(=O)O [compound 5, α-L-aspartyl-L-phenylalanine methyl ester, reference compound] (H-Asp-Phe-OMe) | 12.5

Same assay, conditions: Table 1; 250 mg in 250 ml purified water, 26±2° C., stirring/standing every 30 seconds; listed as Comp. Ex. 6

Row | Structure (SMILES) | Solubilization (minutes), Table 1 [min]
22 | COC(=O)[C@H](Cc1ccccc1)NC(=O)[C@@H](N)CC(=O)O [compound 6, α-L-aspartyl-L-phenylalanine methyl ester, reference compound] (H-Asp-Phe-OMe) | 13.5

Same assay, conditions: Table 1; 250 mg in 250 ml purified water, 26±2° C., stirring/standing every 30 seconds; listed as Ex. 5

Row | Structure (SMILES) | Solubilization (minutes), Table 1 [min]
23 | COC(=O)[C@H](Cc1ccccc1)NC(=O)[C@@H](N)CC(=O)O [Example 5, α-L-aspartyl-L-phenylalanine methyl ester] (H-Asp-Phe-OMe) | 6.5

Same assay, conditions: Table 1; 250 mg in 250 ml purified water, 26±2° C., stirring/standing every 30 seconds; listed as Ex. 6

Row | Structure (SMILES) | Solubilization (minutes), Table 1 [min]
24 | COC(=O)[C@H](Cc1ccccc1)NC(=O)[C@@H](N)CC(=O)O [Example 6, α-L-aspartyl-L-phenylalanine methyl ester] (H-Asp-Phe-OMe) | 6.5

Same assay, conditions: Table 1; 250 mg in 250 ml purified water, 26±2° C., stirring/standing every 30 seconds; listed as Ex. 7

Row | Structure (SMILES) | Solubilization (minutes), Table 1 [min]
25 | COC(=O)[C@H](Cc1ccccc1)NC(=O)[C@@H](N)CC(=O)O [Example 7, α-L-aspartyl-L-phenylalanine methyl ester] (H-Asp-Phe-OMe) | 4.5

Same assay, conditions: Table 1; 250 mg in 250 ml purified water, 26±2° C., stirring/standing every 30 seconds; listed as Ex. 8

Row | Structure (SMILES) | Solubilization (minutes), Table 1 [min]
26 | COC(=O)[C@H](Cc1ccccc1)NC(=O)[C@@H](N)CC(=O)O [Example 8, α-L-aspartyl-L-phenylalanine methyl ester] (H-Asp-Phe-OMe) | 5.5

Same assay, conditions: Table 1; 250 mg in 250 ml purified water, 26±2° C., stirring/standing every 30 seconds; listed as Ex. 9

Row | Structure (SMILES) | Solubilization (minutes), Table 1 [min]
27 | COC(=O)[C@H](Cc1ccccc1)NC(=O)[C@@H](N)CC(=O)O [Example 9, α-L-aspartyl-L-phenylalanine methyl ester] (H-Asp-Phe-OMe) | 7.5

Same assay, conditions: Table 1; 250 mg in 250 ml purified water, 26±2° C., stirring/standing every 30 seconds; listed as Ex. 10

Row | Structure (SMILES) | Solubilization (minutes), Table 1 [min]
28 | COC(=O)[C@H](Cc1ccccc1)NC(=O)[C@@H](N)CC(=O)O [Example 10, α-L-aspartyl-L-phenylalanine methyl ester] (H-Asp-Phe-OMe) | 5.5

Same assay, conditions: Table 2; 250 mg in 250 ml purified water, 26±2° C., stirring/standing every 30 seconds

Row | Structure (SMILES) | Solubilization (min), Table 2 [min]
29 | COC(=O)[C@H](Cc1ccccc1)NC(=O)[C@@H](N)CC(=O)O [Example 20, α-L-aspartyl-L-phenylalanine methyl ester] (H-Asp-Phe-OMe) | 5.5
30 | COC(=O)[C@H](Cc1ccccc1)NC(=O)[C@@H](N)CC(=O)O [Example 22, α-L-aspartyl-L-phenylalanine methyl ester] (H-Asp-Phe-OMe) | 5.0
31 | COC(=O)[C@H](Cc1ccccc1)NC(=O)[C@@H](N)CC(=O)O [Example 21, α-L-aspartyl-L-phenylalanine methyl ester] (H-Asp-Phe-OMe) | 5.5
32 | COC(=O)[C@H](Cc1ccccc1)NC(=O)[C@@H](N)CC(=O)O [Example 19, α-L-aspartyl-L-phenylalanine methyl ester] (H-Asp-Phe-OMe) | 5.5
